Test results reported in patent publication US11378570B2, “Cytotoxicity test method for medical devices” (Alcon Inc., priority 2017, dated 2022).

Test system: Mouse lymphoma TK cells
Test: TK suspension cell assay, treatment with dilutions of BAK and ZDBC
Format: cell-based
Settings: 72±2 hours; for dose dependence of the decrease in cell growth: serial dilutions, 5% or 10% FBS
Description: For each test material, data were collected and the mean and SD were calculated using Excel. The IC50 was calculated using SigmaPlot. Determination of cytotoxicity and test acceptance criteria followed those described in JMHLW and ISO 10993-5: The relative colony-forming rate/relative growth rate of positive control (reference material B) should be equal or less than 10%, and negative control (Wako disk) should be equal or greater than 80%.
Relative cell growth rate (%)=[100×(Test cell concentration at time 72 hours−mean of blank cell concentration at time 0)÷(mean of blank cell concentration at time 72 hours−mean of blank cell concentration at time 0)]. The results are expressed as the mean±standard deviation (SD) from three independent studies and each study has six replicates for each lens.
Phosphate buffer (Cat. #SH30028.02, HyClone, Logan, Utah) was used for dilutions of BAK (1.25, 2.5, 5, 10, 25, and 50 parts per million) (Cat. #B1068, Spectrum Chemical, New Brunswick, N.J.). A total of 900 μL of 2.2×10^4 cells/mL TK cells in assay medium (RPMIFBS10 or RPMIFBS05) were seeded in a 24-well plate and then treated with different dilutions of BAK (100 μL) to achieve final concentrations of 0.125, 0.25, 0.5, 1.0, 2.5, and 5 ppm. Phosphate buffer (100 μL)-treated cells served as a blank control, reference material B (diameter (ϕ): 14 mm) as a positive control, and Wako tissue culture plastic disk served a negative control. After 72±2 hours incubation, 600 μL cells were mixed and transferred into the counter vial. The relative cell growth rate was determined and calculated as described above. The results are expressed as the mean±SD based on three replicates.
DMSO was used to dissolve ZDBC powder (Cat. #Z1031, Spectrum Chemical, New Brunswick, N.J.) to make […], 0.1, 0.2, 0.4, 0.8, and 2 mg/mL dilutions. Next, 995 μL of 2.0×10^4 cells/mL TK cells in assay medium (either RPMIFBS10 or RPMIFBS05) were seeded in a 24-well plate and treated with 5 μL of different ZDBC dilutions to achieve final concentrations of 0.25, 0.5, 1, 2, 4, and 10 μg/mL. DMSO (5 μL)-treated cells served as a blank control, reference material B (diameter (ϕ): 14 mm) as a positive control, and Wako tissue culture plastic disk served a negative control. After 72±2 hours incubation, 600 μL cells were mixed and transferred into the counter vial. The relative cell growth rate was determined and calculated as described above. The results are expressed as the mean±SD based on three replicates.

benzalkonium chloride [BAK]
IC50 (relative cell growth rate) (5% FBS): 0.55 ppm | IC50 (relative cell growth rate) (10% FBS): 0.59 ppm | cytotoxicity (at 0.25 and 0.125 ppm): not cytotoxic | cell growth inhibition as compared to the blank control (at 5, 2.5, 1, and 0.5 ppm): significant cell growth inhibition | dose dependence of the decrease in cell growth: dose-dependent decrease in cell growth

zinc dibutyldithiocarbamate [ZDBC]
IC50 (relative cell growth rate) (5% FBS medium): 2.0 µg/mL | IC50 (relative cell growth rate) (10% FBS medium): 4.5 µg/mL | dose dependence of the decrease in cell growth: dose-dependent decrease in cell growth
